Settings: not given

SMILES	melting point [°C]	boiling point [°C]	log10 vapour pressure (mmHg)	log10 Koc (L/kg)	ready biodegradability	log10 Henry constant (atm·m³/mol)	log10 Koa	log10 biodegradation half-life (days)
B1Oc2ccccc2O1	12							
CC[Si](OC)(OC)OC		124						
Fc1cc(F)cc(F)c1	-5.5	75.5	2.02					
CCCCCCCCCCCCCCCCCCCCCCCC(=O)O	84.2							
Nc1ccc(C(=O)c2ccccc2)cc1	122							
Cn1c(=O)on(-c2ccc(Cl)c(Cl)c2)c1=O	123		-6	3.48				
C=CC(=O)OCCCC	-64.6	145	0.737		readily biodegradable			
Nc1cccc2c1Cc1ccccc1-2	126							
CCCCCCCCCCCC(=O)OOC(=O)CCCCCCCCCCC	49				readily biodegradable			
CCOc1ccccc1C=O	21	248						
COc1ccc(C(O)(c2cncnc2)C2CC2)cc1 (stereo not given)	110		-6.7	2.08		-10.8		
Cc1cc(N)c2ccccc2n1	169	333						
COc1ccc(N)c(C)c1	29.5	248						
Clc1cc(Cl)c(-c2cc(Cl)c(Cl)cc2Cl)cc1Cl			-5.46	5.58		-4.64	9.73	
CCCCCC(=O)Nc1ccccc1	95							
CCCCC(C)(C)C	-121		1.53					0.602
CCC(C(=O)O)c1ccc(CC(C)C)cc1 (stereo not given)	52							
CC(=O)c1cc(C)ccc1O	50	210						
Cc1ccc(S(=O)(=O)N(Cl)Cl)cc1	83							
c1ccc(-c2coc(-c3ccccc3)n2)cc1	103	339						
CCCCCCCO	-34	176	-0.665	1.14	readily biodegradable	-4.73		
FC(F)(F)C(Cl)CCl (stereo not given)		76.9						
COC1[C@@H](O[C@@H]2O[C@H](C)[C@@H](O[C@H]3C[C@@](C)(O)[C@H](OC(=O)CC(C)C)[C@H](C)O3)[C@H](N(C)C)[C@H]2O)[C@@H](CC=O)C[C@@H](C)[C@@H](O)C=CC=CC[C@@H](C)OC(=O)C[C@H]1OC(C)=O (stereo not given in full)	132							

SMILES	melting point [°C]	boiling point [°C]	log10 vapour pressure (mmHg)	log10 Koc (L/kg)	ready biodegradability	log10 Henry constant (atm·m³/mol)	log10 Koa	log10 biodegradation half-life (days)
CCCOCC(C)C		107						
CCC(=O)C=Cc1ccccc1	38.5							
O=C(O)CNC(=S)C(=S)NCC(=O)O	220							
COc1cc(Cc2cnc(N)nc2N)cc(OC)c1OC	201							
CC1=CCC(=O)O1	18							
COC(=O)CCCCl		175						
O=C(CC(=O)C(F)(F)F)c1cccs1	42							
CCNC(C)=O		205			readily biodegradable			
CC1CC(=O)C(C)(C)C1 (stereo not given)	-40.6	158						
CC1(C)C(C=C(Cl)Cl)C1C(=O)OCc1cccc(Oc2ccccc2)c1 (stereo not given)	34		-7.66	4.8				
CCN(CC)c1ccc(Br)cc1	38	270						
CCC/C=C/C=O		146						
COc1c(F)c(F)c(F)c(F)c1F	-37	138						
CC=C(CC)CC		96	1.72					
CCN(CC)c1ccc([N+](=O)[O-])cc1	77.5							
COc1ccccc1CN		229						
CC1=C(/C=C/C(C)=C/C=C/C(C)=C/C=C/C=C(C)/C=C/C=C(C)/C=C/C2=C(C)CCCC2(C)C)C(C)(C)CCC1	183							
ClCc1ccc(Cl)c(Cl)c1	37.5	241			not readily biodegradable			
S=C(SSC(=S)N1CCCCC1)N1CCCCC1	138							
CCN(CC)C(=O)C(Cl)=C(C)OP(=O)(OC)OC				0.85				
CS(=O)(=O)O	20		-3.37		readily biodegradable			
CCNc1nc(NC(C)C)nc(SC)n1	88	345	-5.56	2.59	not readily biodegradable			
CCCCCCCCCCCCCC[N+](C)(C)C.[Br-]	248							

Same assay, conditions: fish

SMILES	log10 BCF	log10 biotransformation half-life (days)
O=C(O)C1CCCCC1C(=O)O (stereo not given)	0.3	
Clc1cc(Cl)c(-c2cc(Cl)c(Cl)cc2Cl)cc1Cl	5.43	2.55
